How the values were obtained:
[1] = Stability of reconstituted LDL in presence of plasma (KBr gradient fractionation); assay type: in vitro ADME; conditions: 1 ml de plasma humain, trois heures à 37° C
Experimental: Dans un milieu biologique aussi complexe que le plasma, de nombreux constituants peuvent, à priori, inte) ragir avec les LDL rec. CT040013 et provoquer leur déstabilisation ou entraîner une libération du principe actif incorporé. Aussi, une première étude a été entreprise pour essayerde caractériser le comportement des LDL rec. CT040013 lorsque ces dernières sont mises en présence de plasma.
Deux préparations ont été testées : les LDL rec. O.CHOL [^14C] et les LDL rec" CT040013. 500 µl de ces différentes préparations sont incubées avec 1 ml de plasma humain pendant trois heures à 37° C. Au terme de cette incubation, les échantillons sont fractionnés par ultracentrifugation sur gradient discontinu en KBr. Par aspiration, on récupère les fractions correspondantes aux différentes densités, et sur chacune de celle-ci, le cholestérol, les phospholipides, l'oléate de cholestérol [^14C] sont dosés (figure 15). Le profil en cholestérol total et en phospholipides est identique dans les deux gradients. On y distingue trois pics correspondants aux trois classes de lipoprotéines, par ordre décroissant de densité : HDL, LDL, et VLDL.

macrophages J77468 = test: Toxicity for J77468 macrophages (MTT reduction); assay type: cell-based, murine; conditions: for % de viabilité cellulaire*: 18 h, MTT
Experimental: La lignée continue de macrophages J77468 d'origine murine provient d'un clonage de la souche J774 ATCC, et est cultivée en milieu RPMI 1640 additionné de glutamine 2 mM, 10% de sérum de veau foetal (décomplémenté 60 min. à 56°) et de 10 mM Hepes (pH 7.2). Une suspension de 5 10^6 cellules/ml sont infectées avec une culture de Candida tropicalis (5 10^5 levures/ml) provenant d'une culture de nuit dans de la casitone. Le milieu d'infection utilisé est du RPMI contenant 2 % de sérum de veau nouveau-né et 10 mM Hepes (pH 7.2).
La viabilité des macrophages J77468 cultivés dans du milieu contenant l'agent antifongique encapsulé ou non dans les LDL figure au Tableau 5. K et K01 sont toxiques aux concentrations nécessaires pour réduire de 50 % l'infection intracellulaire (C1250) contrairement au LDL-K01 pour lequel aucune toxicité n'a pu être détectée.

CCCCCCCC/C=C\CCCCCCCC(=O)N1CCN(c2ccc(OC[C@H]3CO[C@](Cn4ccnc4)(c4ccc(Cl)cc4Cl)O3)cc2)CC1 [KO1]
association à l'albumine [1]: il n'a pas été possible de mettre en évidence une association
relarguage / redistribution de la molécule incorporée en présence de plasma [1]: n'est pas pris en charge par ces protéines de transfert
toxicité aux concentrations nécessaires pour réduire de 50 % l'infection intracellulaire (macrophages J77468): toxiques
% de viabilité cellulaire* (macrophages J77468; Concentration 0,78 µM): 67,72%
% de viabilité cellulaire* (macrophages J77468; Concentration 1,56 µM): 67,72%
% de viabilité cellulaire* (macrophages J77468; Concentration 3,13 µM): 67,36%
% de viabilité cellulaire* (macrophages J77468; Concentration 6,25 µM): 60,70%
% de viabilité cellulaire* (macrophages J77468; Concentration 12,50 µM): 69,47%
% de viabilité cellulaire* (macrophages J77468; Concentration 25,00 µM): 67,71%
% de viabilité cellulaire* (macrophages J77468; Concentration 50,00 µM): 71,22%
% de viabilité cellulaire* (macrophages J77468; Concentration 100,00 µM, versus untreated control): 38,94%
